Where two headings read alike, the source gives them in different places.
What was measured:
[1] = tested on: serum amyloid A protein (SAA); assay: Clinical study in haemodialysis patients: plasma SAA (immuno-nephelometry, N Latex SAA); assay type: in vivo, human; conditions: for SAA MW (mean) / SAA Median: plasma, haemodialysis patients
Text: (§1) For the individual patient, the values before therapy were compared, pair-wise, with those after 3 and 6 weeks of therapy.

C-reactive protein (CRP) = assay: Clinical study in haemodialysis patients: plasma CRP (immuno-nephelometry, N High Sensitivity CRP); assay type: in vivo, human; conditions: for CRP Median / CRP MW (mean): plasma, haemodialysis patients
Text: as §1

[2] = tested on: homocysteine (total) (Hcys); assay: Clinical study in haemodialysis patients: plasma homocysteine (total); assay type: in vivo, human
Method: For the patients for whom all the measured values could be ascertained completely at any time, a “matched pair” analysis was performed in addition. For the individual patient, the values before therapy were compared, pair-wise, with those after 3 and 6 weeks of therapy.

[3] = tested on: inflammation markers CRP and SAA; conditions: haemodialysis patients, 6 weeks of folate therapy
Text: Clinical data were obtained via the prospective, randomised double blind study described below.
141 patients with terminal renal insufficiency, who were being treated with chronic haemodialysis on 3 days each week, and who were between 24 and 90 years old, were divided randomly into 4 therapy groups according to the sex of the patient and the presence or absence of a C677T point mutation on the gene for methylene tetrahydrofolate reductase. Randomisation based on the methylene tetrahydrofolate reductase mutation was effected in order to prevent an imbalance occurring within the individual therapy groups with regard to enzyme activity and thus with regard to folic acid metabolism also. […]
The first blood sample in the study was taken before the commencement of the administration of additional vitamins. […] The following measured quantities were each determined from plasma samples from the 3 blood samples taken: • homocysteine (total) (Hcys) • total folate (Fol) • vitamin B12 (B12) • vitamin B6 (B6) • neopterin (NEOP) • creatinine (Krea) • LDL- and HDL-cholesterol (HDL-Choi, LDL-Chol) • triglyceride (TG) • C-reactive protein (CRP) • amyloid A protein (SAA) […]
CRP and SAA were both measured by means of immuno-nephelometry and tests supplied by DadeBehring (N High Sensitivity CRP and N Latex SAA assays).

[4] = 3 w vs 6 w, value after 3 weeks vs value after 6 weeks
[5] = BL vs 3 w, initial value vs value after 3 weeks
[6] = BL vs 6 w, initial value vs value after 6 weeks
[7] = BL baseline before folate therapy
[8] = BL baseline before folate therapy, basic vitamin preparation in all
[9] = after 3 weeks (3 w) of therapy, 15 mg FTHF or MTHF, 7.5 mg PGA per day plus basic vitamin preparation
[10] = after 6 weeks (6 w) of therapy, 15 mg FTHF or MTHF, 7.5 mg PGA per day plus basic vitamin preparation

Row | Compound | SAA matched pair analysis, significance of difference [1, 4] | SAA matched pair analysis, significance of difference [1, 5] | SAA matched pair analysis, significance of difference [1, 6] | SAA MW (mean) [1, 7] [mg/L] | SAA Median [1, 7] [mg/L] | SAA MW (mean) ([1]; after 3 weeks (3 w) of therapy) [mg/L] | SAA Median ([1]; after 3 weeks (3 w) of therapy) [mg/L] | SAA MW (mean) ([1]; after 6 weeks (6 w) of therapy) [mg/L] | SAA Median ([1]; after 6 weeks (6 w) of therapy) [mg/L] | CRP matched pair analysis, significance of difference (C-reactive protein (CRP); [4]) | CRP matched pair analysis, significance of difference (C-reactive protein (CRP); [5]) | CRP matched pair analysis, significance of difference (C-reactive protein (CRP); [6]) | CRP Median (C-reactive protein (CRP); [7]) [mg/L] | CRP MW (mean) (C-reactive protein (CRP); [8]) [mg/L] | CRP Median (C-reactive protein (CRP); after 3 weeks (3 w) of therapy) [mg/L] | CRP MW (mean) (C-reactive protein (CRP); [9]) [mg/L] | CRP Median (C-reactive protein (CRP); after 6 weeks (6 w) of therapy) [mg/L] | CRP MW (mean) (C-reactive protein (CRP); [10]) [mg/L] | Hcys matched pair analysis, significance of difference [2, 4] | Hcys matched pair analysis, significance of difference [2, 5] | further results
1 | Nc1nc2c(c(=O)[nH]1)N(C=O)[C@H](CNc1ccc(C(=O)N[C@@H](CCC(=O)O)C(=O)O)cc1)CN2 (mixture of isomers) [FTHF, 5-formyl-(6R,S)-tetrahydrofolic acid] | * (p < 0.05) | * (p < 0.05) | Ø | 28 | 6 | 8 | 4 | 35 | 6 | Ø | * (p < 0.05) | Ø | 9 | 16 | 5 | 9 | 6 | 18 | Ø | * (p < 0.05) | Hcys matched pair analysis, significance of difference [2, 6]: ** (p < 0.01)
2 | CN1c2c(nc(N)[nH]c2=O)NC[C@H]1CNc1ccc(C(=O)N[C@@H](CCC(=O)O)C(=O)O)cc1 (mixture of isomers) [MTHF, 5-methyl-(6R,S)-tetrahydrofolic acid] | Ø | Ø | Ø | 34 | 11 | 19 | 10 | 13 | 9 | * (p < 0.05) | * (p < 0.05) | ** (p < 0.01) | 11 | 19 | 8 | 11 | 7 | 9 | Ø | Ø | effect on inflammation markers CRP and SAA (acute phase response), in words [3]: reduce the acute phase response; effect on inflammation markers CRP and SAA (acute phase response), in words ([3]; listed as 5-methyl-(6R,S)-tetahydrofolic acid): most pronounced decrease in inflammation markers; Hcys matched pair analysis, significance of difference [2, 6]: * (p < 0.05)
3 | Nc1nc2ncc(CNc3ccc(C(=O)N[C@@H](CCC(=O)O)C(=O)O)cc3)nc2c(=O)[nH]1 [PGA, folic acid] | * (p < 0.05) | Ø | Ø | 11 | 7 | 12 | 6 | 13 | 10 | Ø | Ø | Ø | 7 | 10 | 8 | 10 | 6 | 9 | Ø | * (p < 0.05) | Hcys matched pair analysis, significance of difference [2, 6]: * (p < 0.05)

— patent US20100179095A1, “USE OF FOLATES FOR PRODUCING A PREPARATION SUITABLE FOR PREVENTING AND TREATING INFLAMMATION AND DISEASES ASSOCIATED WITH INFLAMMATION, ESPECIALLY FOR INFLUENCING THE INFLAMMATION MARKERS CRP AND SAA” (priority 2002, published 2010)
